# Experimental data published in patent US20100190815A1, “HYPERTENSION-AMELIORATING AGENT” (KYOWA HAKKO BIO CO., LTD., priority 2006, published 2010).
# Test system: spontaneously hypertensive rats (SHRs)
# Assay: Systolic blood pressure by the tail-cuff method in spontaneously hypertensive rats, oral administration once daily for 29 days
# Assay type: in vivo, rat
# Conditions: for Systolic blood pressure compared with the 1st (vehicle) group: 5 mg/kg (2nd group), from Day 8 to the end of the test period; for Systolic blood pressure: male SHR/Izm rats, mean ± standard error, n=6
# Method: The rats used were spontaneously hypertensive rats (SHRs). The systolic blood pressure levels of 18 male SHR/Izm rats (10 week olds; Japan SLC, Inc.) were measured on Day 1 of administration. The rats were divided into 3 groups of 6 rats in a manner such that the mean values of the groups were almost equivalent to one another. The groups were referred to as the 1st to the 3rd groups. A 0.5 w/v % methylcellulose aqueous solution was orally administered to the rats in the 1st group. A 0.5 w/v % methylcellulose aqueous solution containing pyrroloquinoline quinone disodium salt (hereinafter, referred to as PQQ disodium salt; Mitsubishi Gas Chemical Company, Inc.) suspended therein (1 mg/mL) was orally administered to the rats in the 2nd group. A 0.5 w/v % methylcellulose aqueous solution containing PQQ disodium salt suspended therein (4 mg/mL) was orally administered to the rats in the 3rd group. Oral administration was carried out in a volume of 5 mL/kg once daily for 29 days. The single dose of PQQ disodium salt was 5 mg/kg in the 2nd group and the same was 20 mg/kg in the 3rd group. On Days 1, 8, 15, 22, and 29 of administration, systolic blood pressure was measured before administration (24 hours after administration on the previous day) and 4 hours after administration of the PQQ disodium salt. Systolic blood pressure was measured by the tail-cuff method with the use of an unheated non-invasive blood pressure monitor for mice and rats (MK-2000, Muromachi Kikai Co., Ltd.). Measurement was carried out 5 times per instance. The mean value of three systolic blood pressure values obtained by excluding the highest value and the lowest value was determined to be the value for an individual rat. The value for each group was expressed as the mean value±standard error (n=6). A statistically significant difference was obtained at each measurement point by carrying out one-way analysis of variance. When the significance was confirmed by one-way analysis of variance, a parametric Dunnett's multiple comparison test was carried so that a significant difference between the 2nd and the 1st group and between the 3rd group and the 1st group were obtained. In addition, in a case in which there was a significance level (p value) of less than 0.05, it was determined that there was a significant difference.
structure (smiles),measurement,setting,value
"O=C(O)c1cc(C(=O)O)c2c(n1)C(=O)C(=O)c1cc(C(=O)O)[nH]c1-2.[Na].[Na] [PQQ disodium salt, pyrroloquinoline quinone disodium salt]",Systolic blood pressure compared with the 1st (vehicle) group,4 hours after administration,lower than that for the 1st group
same,Systolic blood pressure compared with the 1st (vehicle) group,before administration,lower than that for the 1st group
same,Systolic blood pressure compared with the 2nd (5 mg/kg) group,"20 mg/kg (3rd group), 4 hours after administration",lower than that for the 2nd group
same,"Systolic blood pressure compared with the 1st (vehicle) group, significance","20 mg/kg (3rd group), 4 hours after administration on Day 29, Dunnett's test, p < 0.05",significantly lower than that for the 1st group
same,Systolic blood pressure compared with the 2nd (5 mg/kg) group,"20 mg/kg (3rd group), before administration",lower than that for the 2nd group
same,Hypertension-ameliorating effect in hypertension rats (overall conclusion),"SHR rats, 5 and 20 mg/kg oral once daily for 29 days","blood pressure-reducing effects, namely, hypertension-ameliorating effects, were observed"
same,Systolic blood pressure,"5 mg/kg oral once daily (2nd group), Day 1, 4 hours after administration",172 ± 4 mmHg
same,Systolic blood pressure,"5 mg/kg oral once daily (2nd group), Day 1, before administration (baseline)",172 ± 3 mmHg
same,Systolic blood pressure,"5 mg/kg oral once daily (2nd group), Day 8, 4 hours after administration",175 ± 3 mmHg
same,Systolic blood pressure,"5 mg/kg oral once daily (2nd group), Day 8, before administration (24 hours after previous dose)",177 ± 3 mmHg
same,Systolic blood pressure,"5 mg/kg oral once daily (2nd group), Day 15, 4 hours after administration",184 ± 3 mmHg
same,Systolic blood pressure,"5 mg/kg oral once daily (2nd group), Day 15, before administration (24 hours after previous dose)",185 ± 3 mmHg
same,Systolic blood pressure,"5 mg/kg oral once daily (2nd group), Day 22, 4 hours after administration",189 ± 3 mmHg
same,Systolic blood pressure,"5 mg/kg oral once daily (2nd group), Day 22, before administration (24 hours after previous dose)",189 ± 3 mmHg
same,Systolic blood pressure,"5 mg/kg oral once daily (2nd group), Day 29, 4 hours after administration",190 ± 1 mmHg
same,Systolic blood pressure,"5 mg/kg oral once daily (2nd group), Day 29, before administration (24 hours after previous dose)",190 ± 1 mmHg
same,Systolic blood pressure,"20 mg/kg oral once daily (3rd group), Day 1, 4 hours after administration",171 ± 3 mmHg
same,Systolic blood pressure,"20 mg/kg oral once daily (3rd group), Day 1, before administration (baseline)",172 ± 3 mmHg
same,Systolic blood pressure,"20 mg/kg oral once daily (3rd group), Day 8, 4 hours after administration",171 ± 2 mmHg
same,Systolic blood pressure,"20 mg/kg oral once daily (3rd group), Day 8, before administration (24 hours after previous dose)",174 ± 2 mmHg
same,Systolic blood pressure,"20 mg/kg oral once daily (3rd group), Day 15, 4 hours after administration",180 ± 3 mmHg
same,Systolic blood pressure,"20 mg/kg oral once daily (3rd group), Day 15, before administration (24 hours after previous dose)",182 ± 3 mmHg
same,Systolic blood pressure,"20 mg/kg oral once daily (3rd group), Day 22, 4 hours after administration",184 ± 3 mmHg
same,Systolic blood pressure,"20 mg/kg oral once daily (3rd group), Day 22, before administration (24 hours after previous dose)",184 ± 3 mmHg
same,Systolic blood pressure,"20 mg/kg oral once daily (3rd group), Day 29, 4 hours after administration, p < 0.05 relative to the 1st (vehicle) group",184 ± 3 mmHg
same,Systolic blood pressure,"20 mg/kg oral once daily (3rd group), Day 29, before administration (24 hours after previous dose)",186 ± 3 mmHg
